Experimental data as given in patent publication US20180296623A1, “PHARMACEUTICAL COMPOSITION FOR PROMOTING PERIODONTAL TISSUE GROWTH AND FOR PREVENTION AND TREATMENT OF PERIODONTITIS, CONTAINING MAGNOLIA FLOWER EXTRACT, FRACTION THEREOF OR COMPOUND ISOLATED THEREFROM AS ACTIVE INGREDIENT” (OKINAWA RESEARCH CENTER CO., LTD., priority 2015, published 2018).

System: dental root or periodontal tissue
Test: Transplantation of mouse molar embedded in agarose beads containing fargesin into host mouse kidney capsule; micro CT
Assay type: in vivo, C57BL/6 mouse
Conditions: beads soaked in 80 μm fargesin in PBS, molar of 5-day-old mouse grafted into kidney capsule of 8-week-old host mouse, 3 weeks, vs PBS control
Protocol: The following experiment was performed in order to investigate the promoting effect of the fargesin isolated from the Magnolia flower extract on the growth of dental root or periodontal tissue.
Particularly, the fargesin obtained in Example 1 was diluted in PBS (Dainippon Pharmaceuticals Inc., Japan) at the final concentration of 80 μm, and four agarose beads (Affi-Gel Blue Gel, #153-7301, Bio-Rad Laboratories Inc., Japan) were washed with PBS, followed by reaction for at least 60 minutes to allow the fargesin to be absorbed in those beads. For the control, 4 other beads were reacted only with PBS. A 5-day-old C57BL/6 mouse (Sankyo Labo Service Corporation, Japan) was sacrificed, from which molars were extracted from the lower jaws. Dental pulp of the extracted molar was embedded in the agarose beads containing fargesin. For the control, dental pulp of the extracted molar was embedded in the agarose beads containing PBS alone. The agarose beads were each grafted into capsules of the 8-week-old C57BL/6 host mouse (female, Sankyo Labo Service Corporation, Japan) kidneys. The host mice were raised in the conditions of 12 h/12 h light and dark cycle, room temperature, and free feeding. 3 weeks later, the mice were sacrificed, from which the kidneys were extracted. Then, the teeth were observed. The 3D image of the teeth was taken by micro CT (Rigaku R_mCT2).

## COc1ccc([C@@H]2OC[C@H]3[C@@H]2CO[C@@H]3c2ccc3c(c2)OCO3)cc1OC [fargesin]
  formation of alveolar bone around the grafted tooth: observed
  growth of dental root: significant
